According to PubChem BioAssay (NCI):
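These data come from cells grown in 96-well plates and exposed to compound for 48 hours at five concentrations. GI50: concentration for 50% inhibition of growth. Definition used: TGI = concentration required for complete inhibition of growth.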

What was measured:
Assay in all cases: inhibition of tumour cell growth, NCI panel, 48 h
CCRF-CEM leukemia = system: CCRF-CEM leukemia
HCC-2998 colon = system: HCC-2998 colon
LOX IMVI melanoma = system: LOX IMVI melanoma
MCF7 breast = system: MCF7 breast
MDA-MB-231 breast = system: MDA-MB-231 breast
MDA-N = system: MDA-N
PC-3 prostate = system: PC-3 prostate
SNB-19 CNS = system: SNB-19 CNS
SR leukemia = system: SR leukemia
SK-MEL-2 melanoma = system: SK-MEL-2 melanoma

## O=C(O)Cc1cccc2c1OC(c1ccccc1)C(Cl)(C(=O)c1ccccc1)C2=O (stereo not drawn)
CCRF-CEM leukemia
  TGI: 18.2 µM
HCC-2998 colon
  TGI: 26.1 µM
LOX IMVI melanoma
  TGI: 29.2 µM
MCF7 breast
  TGI: 24.5 µM
MDA-MB-231 breast
  TGI: 58.8 µM
MDA-N
  TGI: 29 µM
PC-3 prostate
  TGI: 24.3 µM
SNB-19 CNS
  TGI: > 100 µM
SR leukemia
  TGI: 60.6 µM

## O=S1(=O)N(CCNc2nccc(-c3c(-c4cccc(O)c4)nc4sccn34)n2)CCN1Cc1ccccc1
CCRF-CEM leukemia
  GI50: 2.26 µM
  TGI: 30.9 µM
HCC-2998 colon
  GI50: 14.2 µM
  TGI: 39.8 µM
LOX IMVI melanoma
  GI50: 2.57 µM
  TGI: 16.2 µM
MCF7 breast
  GI50: 4.22 µM
  TGI: 34.6 µM
MDA-MB-231 breast
  GI50: 3.06 µM
  TGI: 26.4 µM
PC-3 prostate
  GI50: 5.66 µM
  TGI: > 50 µM
SK-MEL-2 melanoma
  GI50: 1.55 µM
  TGI: 4.59 µM
SNB-19 CNS
  GI50: 36.4 µM
  TGI: > 50 µM
SR leukemia
  GI50: 9.76 µM
  TGI: > 50 µM

## O=C(O)Cc1cc(O)c(CC(=O)O)cc1O
HCC-2998 colon
  TGI: > 100 µM
LOX IMVI melanoma
  TGI: > 100 µM
MDA-MB-231 breast
  TGI: > 100 µM
MDA-N
  TGI: > 100 µM
PC-3 prostate
  TGI: > 100 µM
SK-MEL-2 melanoma
  TGI: > 100 µM
SNB-19 CNS
  TGI: > 100 µM
SR leukemia
  TGI: > 100 µM

## O=c1[nH]nc(Cc2ccccc2)[nH]1
CCRF-CEM leukemia
  TGI: > 100 µM
HCC-2998 colon
  TGI: > 100 µM
LOX IMVI melanoma
  TGI: > 100 µM
MCF7 breast
  TGI: > 100 µM
MDA-N
  TGI: > 100 µM
PC-3 prostate
  TGI: > 100 µM
SK-MEL-2 melanoma
  TGI: > 100 µM
SNB-19 CNS
  TGI: > 100 µM
SR leukemia
  TGI: > 100 µM

## CC(C)=CC(=O)C[C@H]1C(=O)O[C@@H]2C[C@H]3C(C)=CC(=O)[C@@H](O)[C@]3(C)[C@H]3[C@@]4(O)OC[C@]32[C@@H]1[C@@H](C)[C@H]4O
CCRF-CEM leukemia
  TGI: 0.0918 µM
HCC-2998 colon
  TGI: 0.368 µM
MDA-MB-231 breast
  TGI: 0.381 µM
MDA-N
  TGI: 0.329 µM
PC-3 prostate
  TGI: 0.241 µM
SK-MEL-2 melanoma
  TGI: 0.274 µM
SR leukemia
  TGI: > 100 µM

## O=C1O/C(=C(/Cl)c2cccc3ccccc23)c2ccccc21
HCC-2998 colon
  TGI: > 100 µM
MCF7 breast
  TGI: > 100 µM
MDA-N
  TGI: > 100 µM
PC-3 prostate
  TGI: > 100 µM
SNB-19 CNS
  TGI: > 100 µM
SR leukemia
  TGI: > 100 µM

## C/C=C(/C)C(=O)O[C@H]1C[C@@H]2[C@@H](O)c3occ(C)c3C[C@]2(C)[C@@H](C)C1
CCRF-CEM leukemia
  TGI: 47.4 µM
HCC-2998 colon
  TGI: 34 µM
LOX IMVI melanoma
  TGI: 32.8 µM
MCF7 breast
  TGI: 38.9 µM
MDA-MB-231 breast
  TGI: 29.2 µM
MDA-N
  TGI: 41.7 µM
PC-3 prostate
  TGI: 35.2 µM
SNB-19 CNS
  TGI: 31.5 µM
SR leukemia
  TGI: 43.8 µM

## COc1ccc(CCN2CCN(CCc3ccc(OC)cc3)CC2)cc1
CCRF-CEM leukemia
  TGI: > 100 µM
HCC-2998 colon
  TGI: > 100 µM
LOX IMVI melanoma
  TGI: > 100 µM
MCF7 breast
  TGI: > 100 µM
MDA-MB-231 breast
  TGI: > 100 µM
MDA-N
  TGI: > 100 µM
PC-3 prostate
  TGI: > 100 µM
SK-MEL-2 melanoma
  TGI: > 100 µM
SNB-19 CNS
  TGI: > 100 µM

## COc1ccc(C2=Nn3c(nnc(Cc4ccc(Cl)cc4)c3=O)SC2)cc1
CCRF-CEM leukemia
  TGI: > 100 µM
HCC-2998 colon
  TGI: > 100 µM
LOX IMVI melanoma
  TGI: > 100 µM
MCF7 breast
  TGI: > 100 µM
MDA-MB-231 breast
  TGI: > 100 µM
PC-3 prostate
  TGI: > 100 µM
SK-MEL-2 melanoma
  TGI: > 100 µM
SNB-19 CNS
  TGI: > 100 µM

## COc1cc(O)c2c(c1)OCC(Cc1ccc(O)cc1)C2=O (stereo not drawn)
CCRF-CEM leukemia
  TGI: > 100 µM
LOX IMVI melanoma
  TGI: > 100 µM
MDA-MB-231 breast
  TGI: > 100 µM
MDA-N
  TGI: > 100 µM
PC-3 prostate
  TGI: > 100 µM
SK-MEL-2 melanoma
  TGI: > 100 µM
SNB-19 CNS
  TGI: > 100 µM
SR leukemia
  TGI: > 100 µM

## COc1ccccc1N1CCN(CCCN2/C(=C(\O)c3ccccc3)C(=O)c3c(C)cc(C)nc3S2(=O)=O)CC1
CCRF-CEM leukemia
  TGI: > 100 µM
LOX IMVI melanoma
  TGI: 50 µM
MCF7 breast
  TGI: > 100 µM
MDA-MB-231 breast
  TGI: > 100 µM
MDA-N
  TGI: > 100 µM
PC-3 prostate
  TGI: > 100 µM
SK-MEL-2 melanoma
  TGI: > 100 µM
SNB-19 CNS
  TGI: > 100 µM
SR leukemia
  TGI: > 100 µM

## CC(=O)N[C@@H](Cc1ccc(O)cn1)C(=O)NCc1cccc(Cl)c1
CCRF-CEM leukemia
  TGI: > 100 µM
HCC-2998 colon
  TGI: > 100 µM
LOX IMVI melanoma
  TGI: > 100 µM
MCF7 breast
  TGI: > 100 µM
MDA-N
  TGI: > 100 µM
PC-3 prostate
  TGI: > 100 µM
SK-MEL-2 melanoma
  TGI: > 100 µM
SNB-19 CNS
  TGI: > 100 µM
SR leukemia
  TGI: > 100 µM

## N#Cc1c(-c2ccccc2)cc(Nc2cccc(C(F)(F)F)c2)n2c1nc1ccccc12
LOX IMVI melanoma
  TGI: 3.95 µM
MDA-MB-231 breast
  TGI: 9.85 µM
MDA-N
  TGI: 10.3 µM

## CN1C2CCC1CC(CCNC(c1ccccc1)c1ccccc1)C2 (stereo not drawn)
CCRF-CEM leukemia
  TGI: > 100 µM
LOX IMVI melanoma
  TGI: 59.8 µM
MDA-MB-231 breast
  TGI: 72.4 µM
MDA-N
  TGI: 30.6 µM
PC-3 prostate
  TGI: > 100 µM
SK-MEL-2 melanoma
  TGI: 31.4 µM
SNB-19 CNS
  TGI: > 100 µM
SR leukemia
  TGI: 40.3 µM

## Cc1nn(C(=O)Cc2ccccc2)c2c1C(c1ccc(N(C)C)cc1)SC(N)=N2 (stereo not drawn)
CCRF-CEM leukemia
  TGI: > 100 µM
HCC-2998 colon
  TGI: > 100 µM
LOX IMVI melanoma
  TGI: > 100 µM
MCF7 breast
  TGI: > 100 µM
MDA-MB-231 breast
  TGI: > 100 µM
MDA-N
  TGI: > 100 µM
PC-3 prostate
  TGI: > 100 µM
SNB-19 CNS
  TGI: > 100 µM
SR leukemia
  TGI: > 100 µM

## COc1cc(OC)cc(-c2nc3cc(F)ccc3s2)c1
CCRF-CEM leukemia
  TGI: > 100 µM
HCC-2998 colon
  TGI: 0.0449 µM
LOX IMVI melanoma
  TGI: > 100 µM
MCF7 breast
  TGI: > 100 µM
MDA-MB-231 breast
  TGI: 40.3 µM
MDA-N
  TGI: > 100 µM
PC-3 prostate
  TGI: > 100 µM
SK-MEL-2 melanoma
  TGI: 62.5 µM
SNB-19 CNS
  TGI: 49.2 µM

## NC(N)=N/N=C/c1c(-c2cccc([N+](=O)[O-])c2)nc2n1CCS2
CCRF-CEM leukemia
  TGI: > 100 µM
HCC-2998 colon
  TGI: 48 µM
LOX IMVI melanoma
  TGI: 73.1 µM
MCF7 breast
  TGI: 36.1 µM
MDA-MB-231 breast
  TGI: 44.5 µM
PC-3 prostate
  TGI: 44.5 µM
SK-MEL-2 melanoma
  TGI: 34 µM
SNB-19 CNS
  TGI: 32.1 µM
SR leukemia
  TGI: 34.9 µM

## CCn1c2ccccc2n2c(=O)c3c(c(C#N)c12)CCCC3
CCRF-CEM leukemia
  TGI: > 100 µM
HCC-2998 colon
  TGI: > 100 µM
LOX IMVI melanoma
  TGI: > 100 µM
MCF7 breast
  TGI: > 100 µM
MDA-MB-231 breast
  TGI: > 100 µM
MDA-N
  TGI: > 100 µM
PC-3 prostate
  TGI: > 100 µM
SK-MEL-2 melanoma
  TGI: > 100 µM
SNB-19 CNS
  TGI: > 100 µM

## Cc1ccc(-c2c3nc(c(-c4ccc(C)cc4)c4ccc([nH]4)c(-c4ccc(OCC5COC(C)(C)O5)cc4)c4nc(c(-c5ccc(C)cc5)c5ccc2[nH]5)C=C4)C=C3)cc1 (stereo not drawn)
HCC-2998 colon
  TGI: > 31.6 µM
LOX IMVI melanoma
  TGI: > 31.6 µM
MCF7 breast
  TGI: > 31.6 µM
MDA-MB-231 breast
  TGI: > 31.6 µM
MDA-N
  TGI: > 31.6 µM
SK-MEL-2 melanoma
  TGI: > 31.6 µM
SNB-19 CNS
  TGI: > 31.6 µM
SR leukemia
  TGI: > 31.6 µM

## CC(C)Oc1ccc2c(c1)OCC1Cc3ccccc3OC21 (stereo not drawn)
CCRF-CEM leukemia
  TGI: > 100 µM
HCC-2998 colon
  TGI: > 100 µM
LOX IMVI melanoma
  TGI: > 100 µM
MCF7 breast
  TGI: > 100 µM
MDA-MB-231 breast
  TGI: > 100 µM
MDA-N
  TGI: > 100 µM
PC-3 prostate
  TGI: > 100 µM
SK-MEL-2 melanoma
  TGI: > 100 µM
SR leukemia
  TGI: > 100 µM

## NC(=S)Nc1ccc(S(=O)(=O)Nc2ccc(S(N)(=O)=O)cc2)cc1
CCRF-CEM leukemia
  TGI: > 100 µM
LOX IMVI melanoma
  TGI: > 100 µM
MCF7 breast
  TGI: > 100 µM
MDA-MB-231 breast
  TGI: > 100 µM
MDA-N
  TGI: > 100 µM
PC-3 prostate
  TGI: > 100 µM
SK-MEL-2 melanoma
  TGI: > 100 µM
SNB-19 CNS
  TGI: > 100 µM

## COC(=O)C(NC(=O)c1ccccc1)c1ccco1 (stereo not drawn)
CCRF-CEM leukemia
  TGI: > 100 µM
HCC-2998 colon
  TGI: > 100 µM
MCF7 breast
  TGI: > 100 µM
MDA-N
  TGI: > 100 µM
PC-3 prostate
  TGI: > 100 µM
SNB-19 CNS
  TGI: > 100 µM
SR leukemia
  TGI: > 100 µM
